The compounds below were run against T1, human GPBAR1 receptor (Homo sapiens, UniProt Q8TDU6) (assay: functional cAMP assay in CHO-dhfr(minus) cells expressing human GPBAR1 receptors). Conditions: TR-FRET, 30 min at 30° C.
T1 construct: expressed in transfected cells
T1 sequence (Q8TDU6 1-330): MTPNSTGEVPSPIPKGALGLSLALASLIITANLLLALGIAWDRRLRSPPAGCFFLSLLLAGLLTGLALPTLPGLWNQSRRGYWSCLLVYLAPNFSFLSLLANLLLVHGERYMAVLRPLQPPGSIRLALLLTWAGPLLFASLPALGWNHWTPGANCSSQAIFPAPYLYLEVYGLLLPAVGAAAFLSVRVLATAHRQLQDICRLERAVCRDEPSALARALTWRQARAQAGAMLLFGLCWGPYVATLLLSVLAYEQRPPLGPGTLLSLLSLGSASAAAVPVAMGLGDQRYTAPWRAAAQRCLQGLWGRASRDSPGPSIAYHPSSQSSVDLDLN
Type: cell-based
From the text: The cDNA of the human GPBAR1 receptor (Genbank: NM_170699 with the exception of a silent C:G mutation at position 339 from the start codon) was amplified by polymerase chain reaction (PCR) from human cDNA and inserted into pCineo (Promega) by standard methods (Current Protocols in Molecular Biology, Wiley Press, ed. Ausubel et al.). The final clone was verified by DNA sequence analysis. The plasmid was transfected into CHO cells deficient in dihydrofolate reductase activity (CHO-dhfr-) using Lipofectamine plus (Invitrogen). Clones were isolated in limited dilution conditions and identified by activities in the cAMP assay using lithocholic acid as agonist. A clonal cell line displaying the greatest activity in cAMP increases was selected and identified as giving consistently good responses for up to at least 20 passages.
CHO-dhfr(minus) cells expressing human GPBAR1 receptors are seeded 17-24 hours prior to the experiment 50,000 cells per well in a black 96 well plate with flat clear bottom (Corning Costar #3904) in DMEM (Invitrogen No. 31331), 1×HT supplement, with 10% fetal calf serum and incubated at 5% CO2 and 37° C. in a humidified incubator. The growth medium was exchanged with Krebs Ringer Bicarbonate buffer with 1 mM IBMX and incubated at 30° C. for 30 min. Compounds were added to a final assay volume of 100 μl and incubated for 30 min at 30° C. The assay was stopped by the addition of 50 μl lysis reagent (Tris, NaCl, 1.5% Triton X100, 2.5% NP40, 10% NaN3) and 50 μl detection solutions (20 μM mAb Alexa700-cAMP 1:1, and 48 μM Ruthenium-2-AHA-cAMP) and shaked for 2 h at room temperature. The time-resolved energy transfer is measured by a TRF reader (Evotec Technologies GrmbH, Hamburg Germany), equipped with a ND:YAG laser as excitation source. The plate is measured twice with the excitation at 355 nm and at the emission with a delay of 100 ns and a gate of 100 ns, total exposure time 10 s at 730 (bandwidth 30 nm) or 645 nm (bandwidth 75 nm), respectively. The measured signal at 730 nm has to be corrected for the ruthenium background, the direct excitation of Alexa and the buffer control. The FRET signal is calculated as follows: FRET=T730−Alexa730-P(T645−B645) with P=Ru730−B730/Ru645−B645, where T730 is the test well measured at […], T645 is the test well measured at 645 nm, B730 and B645 are the buffer controls at 730 nm and 645 nm, respectively, cAMP content is determined from the function of a standard curve spanning from 10 μM to 0.13 nM cAMP.
EC50 values were determined using Activity Base analysis (ID Business Solution, Limited). The EC50 values for a wide range of bile acids generated from this assay were in agreement with the values published in the scientific literature. Specificity for GPBAR1 was tested in non-transfected CHO cells in the same assay as above.
`Cc1ccccc1[C@H](C/C(=N\O)c1ccnnc1)c1ccc(Br)cc1` [Example 1, (R,E)-3-(4-Bromophenyl)-1-(pyridazin-4-yl)-3-o-tolylpropan-1-one oxime] gave an EC50 of 80 nM.
Work on `Cc1ccccc1C(C/C(=N\O)c1ccnnc1)c1ccc(-c2ccc(C(=O)O)cc2)cc1` (centres unmarked) [Example 2, (E)-4′-(3-(hydroxyimino)-3-(pyridazin-4-yl)-1-o-tolylpropyl)biphenyl-4-carboxylic acid] yielded an EC50 of 1560 nM.
Compound `Cc1ccccc1C(C/C(=N\O)c1ccnnc1)c1ccc(C2CCN(S(C)(=O)=O)CC2)cc1` (centres unmarked) [Example 3, (E)-3-(4-(1-(methylsulfonyl)piperidin-4-yl)phenyl)-1-(pyridazin-4-yl)-3-o-tolylpropan-1-one oxime] has an EC50 of 956 nM.
`COc1nnccc1/C(C[C@@H](c1ccc(Br)cc1)c1ccccc1C)=N/O` [Example 4, (S,E)-3-(4-bromophenyl)-1-(3-methoxypyridazin-4-yl)-3-o-tolylpropan-1-one oxime] showed an EC50 of 31 nM.
Compound `Cc1ccccc1[C@@H](C/C(=N\O)c1ccn[nH]c1=O)c1ccc(Br)cc1` [Example 5, (S,E)-4-(3-(4-Bromophenyl)-1-(hydroxyimino)-3-o-tolylpropyl)pyridazin-3(2H)-one] has an EC50 of 148 nM.
`Cc1ccccc1[C@@H](C/C(=N\O)c1ccnn(C)c1=O)c1ccc(Br)cc1` [Example 6, (S,E)-4-(3-(4-Bromophenyl)-1-(hydroxyimino)-3-o-tolylpropyl)-2-methylpyridazin-3(2H)-one] was tested, and the EC50 was 90 nM.
Compound `Cc1ccccc1[C@H](C/C(=N\O)c1ccc(=O)n(C)n1)c1ccc(Br)cc1` [Example 7, (R,E)-6-(3-(4-Bromophenyl)-1-(hydroxyimino)-3-o-tolylpropyl)-2-methylpyridazin-3(2H)-one] has an EC50 of 6 nM.
Work on `Cc1ccccc1[C@H](C/C(=N\O)c1ccc(=O)n(C)n1)c1ccc(C2CCN(S(C)(=O)=O)CC2)cc1` [Example 8, (R,E)-6-(1-(Hydroxyimino)-3-(4-(1-(methylsulfonyl)piperidin-4-yl)phenyl)-3-o-tolylpropyl)-2-methylpyridazin-3(2H)-one] yielded an EC50 of 33 nM.
In the case of `Cc1ccccc1[C@H](C/C(=N\O)c1ccc(=O)n(C)n1)c1ccc(-c2ccc(C(=O)O)cc2)cc1` [Example 9, (R,E)-4′-(3-(Hydroxyimino)-3-(1-methyl-6-oxo-1,6-dihydropyridazin-3-yl)-1-o-tolylpropyl)biphenyl-4-carboxylic acid], the EC50 is reported as 61 nM.
With `Cc1ccccc1[C@H](C/C(=N\O)c1ccc(=O)n(C)n1)c1ccc(S(C)(=O)=O)cc1` [Example 10, (R,E)-6-(1-(Hydroxyimino)-3-(4-(methylsulfonyl)phenyl)-3-o-tolylpropyl)-2-methylpyridazin-3(2H)-one] the EC50 was 60 nM.
In the case of `COc1nnccc1/C(C[C@H](c1ccc(C2CCN(S(C)(=O)=O)CC2)cc1)c1ccccc1C)=N/O` [Example 11, (R,E)-1-(3-Methoxypyridazin-4-yl)-3-(4-(1-(methylsulfonyl)piperidin-4-yl)phenyl)-3-o-tolylpropan-1-one oxime], the EC50 is reported as 52 nM.
`Cc1ccccc1[C@H](C/C(=N\O)c1ccn[nH]c1=O)c1ccc(C2CCN(S(C)(=O)=O)CC2)cc1` [Example 12, (R,E)-4-(1-(Hydroxyimino)-3-(4-(1-(methylsulfonyl)piperidin-4-yl)phenyl)-3-o-tolylpropyl)pyridazin-3(2H)-one] showed an EC50 of 527 nM.
`Cc1ccccc1[C@H](C/C(=N\O)c1ccnn(C)c1=O)c1ccc(C2CCN(S(C)(=O)=O)CC2)cc1` [Example 13, (R,E)-4-(1-(Hydroxyimino)-3-(4-(1-(methylsulfonyl)piperidin-4-yl)phenyl)-3-o-tolylpropyl)-2-methylpyridazin-3(2H)-one] was tested, and the EC50 was 179 nM.
In the case of `Cc1ccccc1[C@@H](C/C(=N\O)c1ccc(=O)[nH]n1)c1ccc(Br)cc1` [Example 14, (S,E)-6-(3-(4-Bromophenyl)-1-(hydroxyimino)-3-o-tolylpropyl)pyridazin-3(2H)-one], the EC50 is reported as 648 nM.
